In patent US9073940B2, “Tricyclic pyrazol amine derivatives” (MERCK SERONO SA, priority 2009, dated 2015):

System: 4 PI3K isoforms (Human recombinant GST-PI3K)
Experiment: PI3K scintillation proximity assay, best IC50 obtained with the four isoforms (alpha, beta, delta, gamma)
Format: biochemical
Conditions: for IC50: best IC50 obtained with the four isoforms of PI3K, read-out: Best potency measured on the 4 PI3K isoforms; for Best potency measured on the 4 PI3K isoforms, % inh @20 μM: inhibition at 20 μM

SMILES	IC50 [µM]	Best potency measured on the 4 PI3K isoforms, % inh @20 μM [% inh @20 μM]
CC(C)c1ccccc1-n1nc(C(=O)N2CCOCC2)c2c1-c1ccccc1S(=O)(=O)C2 [Example 312, 1-(2-Isopropylphenyl)-3-(morpholin-4-ylcarbonyl)-1,4-dihydrothiochromeno[4,3-c]pyrazole 5,5-dioxide]		47
CS(=O)(=O)c1ccccc1-n1nc(C(=O)N2CCOCC2)c2c1-c1ccccc1S(=O)(=O)C2 [Example 314]		45
O=C(Nc1cccc2c1S(=O)(=O)Cc1c(C(=O)N3CCOCC3)nn(-c3ccccc3)c1-2)c1ccccc1 [Example 318]		10
O=C(c1nn(-c2ccccc2)c2c1CS(=O)(=O)c1c(CN3CCCCC3)cccc1-2)N1CCOCC1 [Example 319]		33
CN(C)Cc1cccc2c1S(=O)(=O)Cc1c(C(=O)N3CCOCC3)nn(-c3ccccc3)c1-2 [Example 320]		32
O=C(c1nn(-c2cccc(-c3nn[nH]n3)c2)c2c1CS(=O)(=O)c1ccccc1-2)N1CCOCC1 [Example 325]		19
COCCNc1ccc2c(c1)S(=O)(=O)Cc1c(C(=O)N3CCOCC3)nn(-c3ccccc3)c1-2 [Example 327]	6.61	
O=C(c1nn(-c2ccc(-c3ccccc3)cc2)c2c1CS(=O)(=O)c1ccccc1-2)N1CCOCC1 [Example 328]	10.3	
O=C(c1nn(-c2ccccc2)c2c1CS(=O)(=O)c1cc(CN3CCOCC3)ccc1-2)N1CCOCC1 [Example 329]		23
O=C(c1nn(-c2ccccc2)c2c1C[S+]([O-])c1ccccc1-2)N1CCOCC1 (centres unmarked) [Example 330, 3-(Morpholin-4-ylcarbonyl)-1-phenyl-1,4-dihydrothiochromeno[4,3-c]pyrazole 5-oxide]		18
CC(C)CC1COCCN1C(=O)c1nn(-c2ccccc2)c2c1CS(=O)(=O)c1ccccc1-2 (centres unmarked) [Example 332]		15
O=C(c1nn(-c2ccccc2)c2c1CS(=O)(=O)c1ccccc1-2)N1CCOC(CO)C1 (centres unmarked) [Example 333, {4-[(5,5-Dioxido-1-phenyl-1,4-dihydrothiochromeno[4,3-c]pyrazol-3-yl)carbonyl]morpholin-2-yl}methanol]	6.53	
O=C(c1nn(-c2ccccc2)c2c1CS(=O)(=O)c1ccccc1-2)N1CCOc2ccccc21 [Example 335]		13
CC1CN(C(=O)c2nn(-c3ccccc3)c3c2CS(=O)(=O)c2ccccc2-3)CC(C)O1 (centres unmarked) [Example 337]		11
O=C(c1nn(C2CCOC2)c2c1CS(=O)(=O)c1ccccc1-2)N1CCOCC1 (centres unmarked) [Example 342, 3-(Morpholin-4-ylcarbonyl)-1-(tetrahydrofuran-3-yl)-1,4-dihydrothiochromeno[4,3-c]pyrazole 5,5-dioxide]	0.89	
O=C(c1nn(-c2cccc(OCCn3ccnc3)c2)c2c1CS(=O)(=O)c1ccccc1-2)N1CCOCC1 [Example 360, 1-{3-[2-(1H-Imidazol-1-yl)ethoxy]phenyl}-3-(morpholin-4-ylcarbonyl)-1,4-dihydrothiochromeno[4,3-c]pyrazole 5,5-dioxide]	0.179	

Further lines, with some results ahead:

IC50 [µM]	SMILES	Best potency measured on the 4 PI3K isoforms, % inh @20 μM [% inh @20 μM]
0.12	O=C(c1nn(C2CCCN(CCN3CCOCC3)C2)c2c1CS(=O)(=O)c1c(Cl)cccc1-2)N1CCOCC1 (centres unmarked) [Example 309, 6-Chloro-3-(morpholin-4-ylcarbonyl)-1-[1-(2-morpholin-4-ylethyl)piperidin-3-yl]-1,4-dihydrothiochromeno[4,3-c]pyrazole 5,5-dioxide]	
0.192	O=C(c1nn(C2CCN(CCN3CC[C@H](F)C3)C2)c2c1CS(=O)(=O)c1ccccc1-2)N1CCOCC1 (stereo partly drawn) [Example 310, 1-(1-{2-[(3S)-3-Fluoropyrrolidin-1-yl]ethyl}pyrrolidin-3-yl)-3-(morpholin-4-ylcarbonyl)-1,4-dihydrothiochromeno[4,3-c]pyrazole 5,5-dioxide]	
0.156	O=C(c1nn(C2CCN(CCN3CC(F)(F)C3)C2)c2c1CS(=O)(=O)c1ccccc1-2)N1CCOCC1 (centres unmarked) [Example 311, 1-{1-[2-(3,3-Difluoroazetidin-1-yl)ethyl]pyrrolidin-3-yl}-3-(morpholin-4-ylcarbonyl)-1,4-dihydrothiochromeno[4,3-c]pyrazole 5,5-dioxide]	
14.8	COc1ccccc1-n1nc(C(=O)N2CCOCC2)c2c1-c1ccccc1S(=O)(=O)C2 [Example 313, 1-(2-Methoxyphenyl)-3-(morpholin-4-ylcarbonyl)-1,4-dihydrothiochromeno[4,3-c]pyrazole 5,5-dioxide]	
9.8	O=C(c1nn(C2CCOCC2)c2c1C(F)S(=O)(=O)c1ccccc1-2)N1CCOCC1 (centres unmarked) [Example 316, 4-Fluoro-3-(morpholin-4-ylcarbonyl)-1-(tetrahydro-2H-pyran-4-yl)-1,4-dihydrothiochromeno[4,3-c]pyrazole 5,5-dioxide]	
14.5	COc1ccc(C(=O)Cn2nc(C(=O)N3CCOCC3)c3c2-c2ccccc2S(=O)(=O)C3)cc1 [Example 317]	
7.96	CC1CC(C)CC(n2nc(C(=O)N3CCOCC3)c3c2-c2ccccc2S(=O)(=O)C3)C1 (centres unmarked) [Example 321]	
9.88	CC(=O)Nc1cccc2c1S(=O)(=O)Cc1c(C(=O)N3CCOCC3)nn(-c3ccccc3)c1-2 [Example 322]	
17.9	O=C(c1nn(-c2ccccc2)c2c1CS(=O)(=O)c1c(-c3ccccc3)cccc1-2)N1CCOCC1 [Example 323]	
6.69	O=C(c1nn(-c2cccc(-c3ncon3)c2)c2c1CS(=O)(=O)c1ccccc1-2)N1CCOCC1 [Example 324]	
9.79	CCCCNc1ccc2c(c1)S(=O)(=O)Cc1c(C(=O)N3CCOCC3)nn(-c3ccccc3)c1-2 [Example 326]	
9.07	O=C(c1nn(-c2ccccc2)c2c1CS(=O)(=O)c1ccccc1-2)N1CCCOCC1 [Example 334, 3-(1,4-Oxazepan-4-ylcarbonyl)-1-phenyl-1,4-dihydrothiochromeno[4,3-c]pyrazole 5,5-dioxide]	
13.9	CC1COCCN1C(=O)c1nn(-c2ccccc2)c2c1CS(=O)(=O)c1ccccc1-2 (centres unmarked) [Example 338, 3-[(3-Methylmorpholin-4-yl)carbonyl]-1-phenyl-1,4-dihydrothiochromeno[4,3-c]pyrazole 5,5-dioxide]	
0.445	O=C(c1nn(-c2cccc(OCCn3cccn3)c2)c2c1CS(=O)(=O)c1ccccc1-2)N1CCOCC1 [Example 340, 3-(Morpholin-4-ylcarbonyl)-1-{3-[2-(1H-pyrazol-1-yl)ethoxy]phenyl}-1,4-dihydrothiochromeno[4,3-c]pyrazole 5,5-dioxide]	
0.726	COCCOc1cccc(-n2nc(C(=O)N3CCOCC3)c3c2-c2ccccc2S(=O)(=O)C3)c1 [Example 341, 1-[3-(2-Methoxyethoxy)phenyl]-3-(morpholin-4-ylcarbonyl)-1,4-dihydrothiochromeno[4,3-c]pyrazole 5,5-dioxide]	
0.18	CC1COCCN1Cc1ccc(-n2nc(C(=O)N3CCOCC3)c3c2-c2ccccc2S(=O)(=O)C3)cc1 (centres unmarked) [Example 357, 1-{4-[(3-Methylmorpholin-4-yl)methyl]phenyl}-3-(morpholin-4-ylcarbonyl)-1,4-dihydrothiochromeno[4,3-c]pyrazole 5,5-dioxide]	
